Data: patent US9187464B2, “TRPV4 antagonists” (GlaxoSmithKline Intellectual Property (No. 2) Limited, priority 2011, dated 2015)
pIC50: −log10 of the molar value. Structures can show the parent of a compound that is named as a salt.

biological target: T1, human TRPV4 (Homo sapiens, UniProt Q9HBA0); test: Ligand-gated assay (Fluo4 calcium, FLIPR; inhibition of agonist-induced activation); assay type: cell-based; conditions: HEK-293-MSR-II cells transduced with BacMam human TRPV4; agonist at EC80
T1 construct: expressed in transfected cells; host or cells: HEK-293-MSR-II cells transduced with 1% BacMam virus
Summary of the method: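 HEK-293-MSR-II cells BacMam-transduced with human TRPV4, loaded with 2 uM Fluo-4. Compound preincubated 10 min at room temperature in HBSS pH 7.4 plus 0.01% Chaps, then agonist added at its EC80. Inhibition of agonist-evoked calcium rise read on FLIPR; IC50 reported.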

T1 sequence (Q9HBA0 whole entry): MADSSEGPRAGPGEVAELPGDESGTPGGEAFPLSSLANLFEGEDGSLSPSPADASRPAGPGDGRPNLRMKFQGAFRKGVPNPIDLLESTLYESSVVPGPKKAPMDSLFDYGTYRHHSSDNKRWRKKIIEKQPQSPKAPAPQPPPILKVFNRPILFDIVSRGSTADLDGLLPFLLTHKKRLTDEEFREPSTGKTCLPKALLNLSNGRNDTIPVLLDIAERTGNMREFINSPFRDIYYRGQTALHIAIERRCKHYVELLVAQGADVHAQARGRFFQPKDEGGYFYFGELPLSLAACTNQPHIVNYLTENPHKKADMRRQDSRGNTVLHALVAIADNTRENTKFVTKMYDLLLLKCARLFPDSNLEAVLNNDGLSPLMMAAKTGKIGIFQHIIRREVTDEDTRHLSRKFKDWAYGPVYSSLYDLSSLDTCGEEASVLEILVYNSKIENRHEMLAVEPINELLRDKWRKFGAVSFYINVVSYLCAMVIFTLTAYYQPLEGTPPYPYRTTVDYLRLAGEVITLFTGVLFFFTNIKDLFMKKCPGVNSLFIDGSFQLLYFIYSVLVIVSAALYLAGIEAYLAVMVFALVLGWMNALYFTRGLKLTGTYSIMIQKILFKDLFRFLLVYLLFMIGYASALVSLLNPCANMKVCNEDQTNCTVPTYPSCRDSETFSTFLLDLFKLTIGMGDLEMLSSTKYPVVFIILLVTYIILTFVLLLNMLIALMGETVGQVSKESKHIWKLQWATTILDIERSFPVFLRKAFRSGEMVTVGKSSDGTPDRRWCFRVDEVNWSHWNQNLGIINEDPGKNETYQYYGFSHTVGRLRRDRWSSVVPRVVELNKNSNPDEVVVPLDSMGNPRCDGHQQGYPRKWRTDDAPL

Row | pIC50 | Compound
1 | 6.30 to 7.30 | N#Cc1ccc2ncn(C[C@H]3CCC[C@]4(C3)CN(Cc3cncc(-c5ccccc5)c3)C(=O)O4)c2c1 [Example 72, 1-({(5S,7S)-2-oxo-3-[(5-phenyl-3-pyridinyl)methyl]-1-oxa-3-azaspiro[4.5]dec-7-yl}methyl)-1H-benzimidazole-6-carbonitrile trifluoroacetate]
2 | 8.00 to 10.00 | CC(C)(CN1C[C@@]2(CCC[C@H](Cn3cnc4c(Cl)cc(C#N)cc43)C2)OC1=O)c1nc(-c2ccccc2)no1 [Example 73, 4-chloro-1-({(5S,7S)-3-[2-methyl-2-(3-phenyl-1,2,4-oxadiazol-5-yl)propyl]-2-oxo-1-oxa-3-azaspiro[4.5]dec-7-yl}methyl)-1H-benzimidazole-6-carbonitrile]
3 | 7.30 to 8.00 | Cc1noc(C(C)(C)CN2C[C@@]3(CCC[C@H](Cn4cnc5ccc(C#N)cc54)C3)OC2=O)n1 [Example 74, 1-({(5S,7S)-3-[2-methyl-2-(3-methyl-1,2,4-oxadiazol-5-yl)propyl]-2-oxo-1-oxa-3-azaspiro[4.5]dec-7-yl}methyl)-1H-benzimidazole-6-carbonitrile]
4 | 8.00 to 10.00 | CC(C)(CN1C[C@@]2(CCC[C@H](Cn3cnc4ccc(C#N)cc43)C2)OC1=O)c1nc(-c2ccccc2)no1 [Example 75, 1-({(5S,7S)-3-[2-methyl-2-(3-phenyl-1,2,4-oxadiazol-5-yl)propyl]-2-oxo-1-oxa-3-azaspiro[4.5]dec-7-yl}methyl)-1H-benzimidazole-6-carbonitrile]
5 | 8.00 to 10.00 | CC(C)c1noc(C(C)(C)CN2C[C@@]3(CCC[C@H](Cn4cnc5ccc(C#N)cc54)C3)OC2=O)n1 [Example 76, 1-[((5S,7S)-3-{2-methyl-2-[3-(1-methylethyl)-1,2,4-oxadiazol-5-yl]propyl}-2-oxo-1-oxa-3-azaspiro[4.5]dec-7-yl)methyl]-1H-benzimidazole-6-carbonitrile]
6 | 8.00 to 10.00 | CC(C)(CN1C[C@@]2(CCC[C@H](Cn3cnc4ccc(C#N)cc43)C2)OC1=O)c1nc(C2CCCC2)no1 [Example 77, 1-({(5S,7S)-3-[2-(3-cyclopentyl-1,2,4-oxadiazol-5-yl)-2-methylpropyl]-2-oxo-1-oxa-3-azaspiro[4.5]dec-7-yl}methyl)-1H-benzimidazole-6-carbonitrile]
7 | 8.00 to 10.00 | CC(C)(CN1C[C@@]2(CCC[C@H](Cn3cnc4ccc(C#N)cc43)C2)OC1=O)c1nc(-c2cncnc2)no1 [Example 78, 1-[((5S,7S)-3-{2-methyl-2-[3-(5-pyrimidinyl)-1,2,4-oxadiazol-5-yl]propyl}-2-oxo-1-oxa-3-azaspiro[4.5]dec-7-yl)methyl]-1H-benzimidazole-6-carbonitrile]
8 | 8.00 to 10.00 | CC(C)(C)c1noc(C(C)(C)CN2C[C@@]3(CCC[C@H](Cn4cnc5ccc(C#N)cc54)C3)OC2=O)n1 [Example 79, 1-[((5S,7S)-3-{2-[3-(1,1-dimethylethyl)-1,2,4-oxadiazol-5-yl]-2-methylpropyl}-2-oxo-1-oxa-3-azaspiro[4.5]dec-7-yl)methyl]-1H-benzimidazole-6-carbonitrile]
9 | 8.00 to 10.00 | CC(C)(CN1C[C@@]2(CCC[C@H](Cn3cnc4ccc(C#N)cc43)C2)OC1=O)c1nc(C(F)(F)F)no1 [Example 80, 1-[((5S,7S)-3-{2-methyl-2-[3-(trifluoromethyl)-1,2,4-oxadiazol-5-yl]propyl}-2-oxo-1-oxa-3-azaspiro[4.5]dec-7-yl)methyl]-1H-benzimidazole-6-carbonitrile]
10 | 8.00 to 10.00 | COCc1noc(C(C)(C)CN2C[C@@]3(CCC[C@H](Cn4cnc5ccc(C#N)cc54)C3)OC2=O)n1 [Example 81, 1-{[(5S,7S)-3-(2-methyl-2-{3-[(methyloxy)methyl]-1,2,4-oxadiazol-5-yl}propyl)-2-oxo-1-oxa-3-azaspiro[4.5]dec-7-yl]methyl}-1H-benzimidazole-6-carbonitrile]
11 | 8.00 to 10.00 | CC(C)Cc1noc(C(C)(C)CN2C[C@@]3(CCC[C@H](Cn4cnc5ccc(C#N)cc54)C3)OC2=O)n1 [Example 82, 1-[((5S,7S)-3-{2-methyl-2-[3-(2-methylpropyl)-1,2,4-oxadiazol-5-yl]propyl}-2-oxo-1-oxa-3-azaspiro[4.5]dec-7-yl)methyl]-1H-benzimidazole-6-carbonitrile]
12 | 8.00 to 10.00 | CC(C)OCc1noc(C(C)(C)CN2C[C@@]3(CCC[C@H](Cn4cnc5ccc(C#N)cc54)C3)OC2=O)n1 [Example 83, 1-({(5S,7S)-3-[2-methyl-2-(3-{[(1-methylethyl)oxy]methyl}-1,2,4-oxadiazol-5-yl)propyl]-2-oxo-1-oxa-3-azaspiro[4.5]dec-7-yl}methyl)-1H-benzimidazole-6-carbonitrile]
13 | 8.00 to 10.00 | N#Cc1cc(Cl)c2ncn(C[C@H]3CCC[C@]4(C3)CN(CC3(c5nc(-c6ccccc6)no5)CCOCC3)C(=O)O4)c2c1 [Example 84, 4-chloro-1-[((5S,7S)-2-oxo-3-{[4-(3-phenyl-1,2,4-oxadiazol-5-yl)tetrahydro-2H-pyran-4-yl]methyl}-1-oxa-3-azaspiro[4.5]dec-7-yl)methyl]-1H-benzimidazole-6-carbonitrile]
14 | 8.00 to 10.00 | N#Cc1cc(Cl)c2ncn(C[C@H]3CCC[C@]4(C3)CN(CC3(c5nc(C6CCCC6)no5)CCOCC3)C(=O)O4)c2c1 [Example 85, 4-chloro-1-[((5S,7S)-3-{[4-(3-cyclopentyl-1,2,4-oxadiazol-5-yl)tetrahydro-2H-pyran-4-yl]methyl}-2-oxo-1-oxa-3-azaspiro[4.5]dec-7-yl)methyl]-1H-benzimidazole-6-carbonitrile]
15 | 6.30 to 7.30 | N#Cc1ccc2ncn(C[C@H]3CCC[C@]4(C3)CN(CC3CCN(c5ccccn5)C3)C(=O)O4)c2c1 (stereo partly drawn) [Example 86, 1-[((5S,7S)-2-oxo-3-{[1-(2-pyridinyl)-3-pyrrolidinyl]methyl}-1-oxa-3-azaspiro[4.5]dec-7-yl)methyl]-1H-benzimidazole-6-carbonitrile]
16 | 7.30 to 8.00 | N#Cc1ccc2ncn(C[C@H]3CCC[C@]4(C3)CN(Cc3cn(-c5ccccc5)nn3)C(=O)O4)c2c1 [Example 87, 1-({(5S,7S)-2-oxo-3-[(1-phenyl-1H-1,2,3-triazol-4-yl)methyl]-1-oxa-3-azaspiro[4.5]dec-7-yl}methyl]-1H-benzimidazole-6-carbonitrile]
17 | 6.30 to 7.30 | N#Cc1ccc(-n2cc(CN3C[C@@]4(CCC[C@H](Cn5cnc6ccc(C#N)cc65)C4)OC3=O)nn2)cc1 [Example 88, 1-[((5S,7S)-3-{[1-(4-cyanophenyl)-1H-1,2,3-triazol-4-yl]methyl}-2-oxo-1-oxa-3-azaspiro[4.5]dec-7-yl)methyl]-1H-benzimidazole-6-carbonitrile]
18 | 7.30 to 8.00 | N#Cc1ccc2ncn(C[C@H]3CCC[C@]4(C3)CN(Cc3cn(-c5ccc(Cl)cc5)nn3)C(=O)O4)c2c1 [Example 89]
19 | 8.00 to 10.00 | N#Cc1ccc2ncn(C[C@H]3CCC[C@]4(C3)CN(Cc3cn(-c5cccc(Cl)c5)nn3)C(=O)O4)c2c1 [Example 90, 1-[((5S,7S)-3-{[1-(3-chlorophenyl)-1H-1,2,3-triazol-4-yl]methyl}-2-oxo-1-oxa-3-azaspiro[4.5]dec-7-yl)methyl]-1H-benzimidazole-6-carbonitrile]
20 | 6.30 to 7.30 | Cc1ccc(-n2cc(CN3C[C@@]4(CCC[C@H](Cn5cnc6ccc(C#N)cc65)C4)OC3=O)nn2)cc1 [Example 91, 1-[((5S,7S)-3-{[1-(4-methylphenyl)-1H-1,2,3-triazol-4-yl]methyl}-2-oxo-1-oxa-3-azaspiro[4.5]dec-7-yl)methyl]-1H-benzimidazole-6-carbonitrile]
21 | 7.30 to 8.00 | N#Cc1cccc(-n2cc(CN3C[C@@]4(CCC[C@H](Cn5cnc6ccc(C#N)cc65)C4)OC3=O)nn2)c1 [Example 92, 1-[((5S,7S)-3-{[1-(3-cyanophenyl)-1H-1,2,3-triazol-4-yl]methyl}-2-oxo-1-oxa-3-azaspiro[4.5]dec-7-yl)methyl]-1H-benzimidazole-6-carbonitrile]
22 | 8.00 to 10.00 | N#Cc1ccc2ncn(C[C@H]3CCC[C@]4(C3)CN(Cc3cn(-c5cccc(C(F)(F)F)c5)nn3)C(=O)O4)c2c1 [Example 93, 1-{[(5S,7S)-2-oxo-3-({1-[3-(trifluoromethyl)phenyl]-1H-1,2,3-triazol-4-yl}methyl)-1-oxa-3-azaspiro[4.5]dec-7-yl]methyl}-1H-benzimidazole-6-carbonitrile]
23 | 7.30 to 8.00 | N#Cc1ccc2ncn(C[C@H]3CCC[C@]4(C3)CN(Cc3cn(-c5cccc(F)c5)nn3)C(=O)O4)c2c1 [Example 94, 1-[((5S,7S)-3-{[1-(3-fluorophenyl)-1H-1,2,3-triazol-4-yl]methyl}-2-oxo-1-oxa-3-azaspiro[4.5]dec-7-yl)methyl]-1H-benzimidazole-6-carbonitrile]
24 | 7.30 to 8.00 | COc1cccc(-n2cc(CN3C[C@@]4(CCC[C@H](Cn5cnc6ccc(C#N)cc65)C4)OC3=O)nn2)c1 [Example 95, 1-{[(5S,7S)-3-({1-[3-(methyloxy)phenyl]-1H-1,2,3-triazol-4-yl}methyl)-2-oxo-1-oxa-3-azaspiro[4.5]dec-7-yl]methyl}-1H-benzimidazole-6-carbonitrile]
25 | 7.30 to 8.00 | Cc1cccc(-n2cc(CN3C[C@@]4(CCC[C@H](Cn5cnc6ccc(C#N)cc65)C4)OC3=O)nn2)c1 [Example 96, 1-[((5S,7S)-3-{[1-(3-methylphenyl)-1H-1,2,3-triazol-4-yl]methyl}-2-oxo-1-oxa-3-azaspiro[4.5]dec-7-yl)methyl]-1H-benzimidazole-6-carbonitrile]
26 | 7.30 to 8.00 | N#Cc1ccc2ncn(C[C@H]3CCC[C@]4(C3)CN(Cc3cn(C5CCCCC5)nn3)C(=O)O4)c2c1 [Example 97, 1-({(5S,7S)-3-[(1-cyclohexaneyl-1H-1,2,3-triazol-4-yl)methyl]-2-oxo-1-oxa-3-azaspiro[4.5]dec-7-yl}methyl)-1H-benzimidazole-6-carbonitrile]
27 | 8.00 to 10.00 | N#Cc1ccc2ncn(C[C@H]3CCC[C@]4(C3)CN(Cc3cn(-c5ccc(C#N)c(C(F)(F)F)c5)nn3)C(=O)O4)c2c1 [Example 98, 1-{[(5S,7S)-3-({1-[4-cyano-3-(trifluoromethyl)phenyl]-1H-1,2,3-triazol-4-yl}methyl)-2-oxo-1-oxa-C azaspiro[4.5]dec-7-yl]methyl}-1H benzimidazole-6-carbonitrile]
